Results from US12414932B2, “Arsinothricin and methods of treating infections using arsinothricin” (priority 2018, dated 2025).

Tested on: Gram-negative and Gram-positive bacteria
Assay: Bacterial resistance (growth inhibition) assay, environmental isolates
Assay type: cell-based
Conditions: M9 medium, 24 h; except B. gladioli GSRB05 and P. putida KT2440; PT as L-PT

## CP(=O)(O)CCC(N)C(=O)O (racemic) [PT, phosphinothricin, reference compound]
  concentration inhibiting each species to the same degree: 400 µM
